Our source for the inhibition and Activity values is ChEMBL document CHEMBL1177776, “Novel coumarin derivatives as potential antidyslipidemic agents” (2010).

By inhibition is commonly meant how much of the control response was suppressed.

What all share (assay type): functional
Experiment [1] in a line: Antioxidant activity assessed as inhibition lipid peroxidation at 200 ug/ml by spectrophotometry.
The test system of experiment [2] is Rattus norvegicus. The experiment is described as follows: Antidyslipidemic activity against triton-induced hyperlipidemia in Charles Foster rat assessed as reduction in total cholesterol level at 100 mg/kg, po after 18 hrs by spectrophotometry relative to control. The arrangement: scale not given: the % may be the effect or the level left.
Experiment [3] has as its system Rattus norvegicus. The experiment is described as follows: Antidyslipidemic activity against triton-induced hyperlipidemia in Charles Foster rat assessed as reduction in phospholipid level at 100 mg/kg, po after 18 hrs by spectrophotometry relative to control. Further details: scale not given: the % may be the effect or the level left.
Experiment [4] concerns Rattus norvegicus. The experiment is described as follows: Antidyslipidemic activity against triton-induced hyperlipidemia in Charles Foster rat assessed as reduction in triglyceride level at 100 mg/kg, po after 18 hrs by spectrophotometry relative to control. The arrangement: scale not given: the % may be the effect or the level left.
The nature of experiment [5]: Antioxidant activity assessed as inhibition non-enzymatic reactants generated hydroxyl radical production at 200 ug/ml by spectrophotometry.
The nature of experiment [6]: Antioxidant activity assessed as inhibition non-enzymatic reactants generated superoxide anion at 200 ug/ml by spectrophotometry.
Experiment [7] can be described thus: Antioxidant activity assessed as inhibition non-enzymatic reactants generated hydroxyl radical production at 100 ug/ml by spectrophotometry.
A short description of experiment [8]: Antioxidant activity assessed as inhibition non-enzymatic reactants generated superoxide anion at 20 ug/ml by spectrophotometry.

Molecules are shown by their SMILES.

On to `Cc1cc2cc(Cl)c(=O)oc2c2ccccc12`, for which the inhibition in experiment [1] amounted to 38%; in experiment [5] it was 49%; in experiment [6] it was 32%. Further, the Activity in experiment [2] is 27%; in experiment [3], 26%; in experiment [4] it was 26%.

For the compound `OC[C@@H](O)[C@@H](O)[C@H](O)[C@H](O)CO`, the inhibition in experiment [7] turned out to be 52%.

As to `Cc1c(C)c2c(c(C)c1O)CC[C@@](C)(CCC[C@H](C)CCC[C@H](C)CCCC(C)C)O2`, in experiment [7], the inhibition is 47%.

In the case of `Cc1cc(C=O)c(O)c2ccccc12`, the inhibition in experiment [1] is 41%; in experiment [5], 41%; in experiment [6] it was 27%. In addition, the Activity in experiment [2] is reported as 24%; in experiment [3], 25%; in experiment [4], 23%.

Take `Oc1ncnc2[nH]ncc12`: in experiment [8], the inhibition came to 80%.

As to `Cc1ccc(C)c(OCCCC(C)(C)C(=O)O)c1` [GEMFIBROZIL], the values for the Activity in experiment [2], in experiment [3] and in experiment [4] were 34%, 38% and 35%, respectively.
